Results on 34 compounds are retold here after patent US8609644B2, “Amino derivatives of androstanes and androstenes as medicaments for cardiovascular disorders” (priority 2006, dated 2013).

One may read the IC50 as the midpoint of a concentration-inhibition curve.

Where a name gives a salt, the structure may show the parent alone.

One assay deals with Na+, K+-ATPase (Canis lupus familiaris, UniProt P50997). The experiment in a line: biochemical. The arrangement: species or system dog. The conditions noted are these: Na+, K+-ATPase Inhibition IC50.
`CC1CC2C3CCC(=O)C3(C)CCC2C2(C)CCC(=NOCCN)CC12` (single isomer, unassigned) [I-az, (E,Z) 3-(2-Aminoethoxyimino)-6β-methylandrostan-17-one hydrochloride]: half-maximal inhibition (IC50) required 6 µM. Still for that read-out and setting: the same measure for `CC12CCC3C(CC(=CCO)C4CC(=NOCCN)CCC43C)C1CCC2=O` (mixture of isomers) [I-bj, (E,Z) 3-(2-Aminoethoxyimino)-6-(E)-[2-hydroxyethylidene]androstan-17-one hydrochloride]: 0.77 µM; for `C#CC1CC2C3CCC(=O)C3(C)CCC2C2(C)CCC(=NOCCCNC)CC12` (stereo not drawn) [I-cq, (E,Z) 3-(3-N-Methylaminopropoxyimino)-6α-ethynylandrostan-17-one hydrochloride]: 1.2 µM; for `C=C1CC2C3CCC(=O)C3(C)CCC2C2(C)CCC(=NOCCCNC)CC12` (mixture of isomers) [I-ck, (E,Z) 3-(3-N-Methylaminopropoxyimino)-6-methyleneandrostane-17-one fumarate]: 0.57 µM.

For `CC12CCC3C(CC(=CC#N)C4CC(=NOCCN)CCC43C)C1CCC2=O` (stereo not shown) [I-bi, (E) 3-(2-Aminoethoxyimino)-17-oxoandrostane-6-(E)-ylideneacetonitrile hydrochloride], the IC50 amounted to 1.7 µM.

Consider `C=C1C[C@H]2[C@@H]3CCC(=O)[C@@]3(C)CC[C@@H]2[C@@]2(C)CCC(=NOCCCNC)C[C@]12O` (mixture of isomers) [I-ct, (E,Z) 3-(3-N-Methylaminopropoxyimino)-5α-hydroxy-6-methylenandrostan-17-one hydrochloride], for which half-maximal inhibition (IC50) required 1.4 µM. Same read-out and setting: the figure for `C[C@]12CCC(=NOCCN)C[C@@H]1C(=C(F)F)C[C@@H]1[C@@H]2CC[C@]2(C)C(=O)CC[C@@H]12` (mixture of isomers) [I-bh, (E,Z) 3-(2-Aminoethoxyimino)-6-difluoromethyleneandrostan-17-one hydrochloride] is 0.19 µM.

Still in this assay, the particulars now being: dog kidney enzyme; read-out: Na+, K+-ATPase Inhibition IC50.
Regarding `CC12CCC3C(CC4(OCCO4)C4CC(=NOCCN)CCC34C)C1CCC2=O` (mixture of isomers) [I-ag, (E,Z) 3-(2-Aminoethoxyimino)-6-(2-spiro-1,3-dioxolane)androstane-17-one fumarate], the half-inhibitory concentration (IC50) turned out to be 5.4 µM. Take `CNCCCON=C1CCC2(C)C3CCC4(C)C(=O)CCC4C3CC3(CC3)C2C1` (mixture of isomers) [I-cp, (E,Z) 3-(3-N-Methylaminopropoxyimino)-6-(spirocyclopropane)androstan-17-one hydrochloride]: the IC50 is 1.3 µM.

`C[C@]12CCC(=NOCCN)C[C@@H]1C[C@@H](CO)[C@@H]1[C@@H]2CC[C@]2(C)C(=O)CC[C@@H]12` (mixture of isomers) [I-bz, (E,Z) 3-(2-Aminoethoxyimino)-7α-hydroxymethylandrostane-17-one hydrochloride]: the 50% inhibitory concentration (IC50) came out at 1.1 µM. Take `CC12CCC3C(CC(CO)C4CC(=NOCCN)CCC43C)C1CCC2=O` (single isomer, unassigned) [I-aj, (E,Z) 3-(2-Aminoethoxyimino)-6β-hydroxymethylandrostan-17-one hydrochloride]: the IC50 was 1.6 µM. Same read-out and setting: the same measure for `CNCCCOC1CCC2(C)C(C1)C(CO)CC1C3CCC(=O)C3(C)CCC12` (stereo not drawn) [I-du, 3β-(3-N-Methylaminopropoxy)-6α-hydroxymethylandrostane-17-one fumarate]: 1.1 µM; for `CC12CCC3C(CC(C#N)C4CC(=NOCCN)CCC43C)C1CCC2=O` (mixture of isomers) [I-ac, (E,Z) 3-(2-Aminoethoxyimino)-6α-cyanoandrostan-17-one fumarate]: 1.1 µM. Still for that read-out and setting: the figure for `C=C1C[C@@H]2[C@H](CC[C@]3(C)C(=O)CC[C@@H]23)[C@@]2(C)CC[C@@H](SCCCN)CC12` (stereo partly drawn) [I-dz, 3α-(3-Aminopropylthio)-6-methyleneandrostane-17-one fumarate] is 1.5 µM; for `CNCCCON=C1CCC2(C)C(C1)CC1(CC1)C1C3CCC(=O)C3(C)CCC12` (mixture of isomers) [I-cv, (E,Z) 3-(3-N-Methylaminopropoxyimino)-7-(spirocyclopropane)androstan-17-one hydrochloride] it is 0.74 µM. Still for that read-out and setting: the same measure for `CCON=C1CC2C3CCC(=O)C3(C)CCC2C2(C)CCC(=NOCCN)CC12` (mixture of isomers) [I-ax, (E,Z)-3-(2-Aminoethoxyimino)-6-(E)-ethoxyiminoandrostan-17-one hydrochloride]: 1.7 µM; for `COC(=O)C=C1CC2C3CCC(=O)C3(C)CCC2C2(C)CCC(=NOCCN)CC12` (mixture of isomers) [I-bk, Methyl [3-(E,Z)-(2-aminoethoxyimino)-17-oxoandrostane-6-(E)-ylidene]-acetate hydrochloride]: 64 µM. As for `CNCCCON=C1CCC2(C)C(C1)C(C(=O)OC)CC1C3CCC(=O)C3(C)CCC12` (mixture of isomers) [I-cm, (Z,E) 3-(3-N-Methylaminopropoxyimino)-6α-methoxycarbonylandrostan-17-one hydrochloride], the half-inhibitory concentration (IC50) came out at 4 µM. For `COCC1CC2C3CCC(=O)C3(C)CCC2C2(C)CCC(=NOCCN)CC12` (mixture of isomers) [I-ak, (E,Z) 3-(2-Aminoethoxyimino)-6β-methoxymethylandrostan-17-one hydrochloride], the IC50 was 3 µM. Still for that read-out and setting: the same measure for `C[C@]12CCC(=NOCCN)C[C@@H]1[C@]1(CO1)C[C@@H]1[C@@H]2CC[C@]2(C)C(=O)CC[C@@H]12` (mixture of isomers) [I-bb, (E,Z)-3-(2-Aminoethoxyimino)androstane-6(S)-(spiro-2′-oxirane)-17-one hydrochloride]: 0.87 µM; for `C=CCON=C1CC2C3CCC(=O)C3(C)CCC2C2(C)CCC(=NOCCN)CC12` (stereo not shown) [I-ay, (E,Z)-3-(2-Aminoethoxyimino)-6-(E)-allyloxyiminoandrostan-17-one fumarate]: 43 µM; for `CNCCCON=C1CCC2(C)C(C1)C(CO)C(O)C1C3CCC(=O)C3(C)CCC12` (mixture of isomers) [I-ek, (E,Z) 3-(3-N-Methylaminopropoxyimino)-6α-hydroxymethyl-7α-hydroxyandrostane-17-one hydrochloride]: 0.32 µM. Still for that read-out and setting: the same measure for `COC[C@H]1C[C@@H]2[C@H](CC[C@]3(C)C(=O)CC[C@@H]23)[C@@]2(C)CC/C(=N\OCCN)CC12` (stereo partly drawn) [I-aq, (E) 3-(2-Aminoethoxyimino)-6α-methoxymethylandrostan-17-one hydrochloride]: 0.5 µM; for `CC12CCC3C(CC(O[N+](=O)[O-])C4CC(=NOCCN)CCC43C)C1CCC2=O` (single isomer, unassigned) [I-aa, (E,Z) 3-(2-Aminoethoxyimino)-17-oxoandrostane-6α-yl nitrate fumarate]: 0.33 µM; for `C[C@]12CCC(=NOCCN)C[C@@H]1CC1(CC1)[C@@H]1[C@@H]2CC[C@]2(C)C(=O)CC[C@@H]12` (mixture of isomers) [I-cb, (E,Z) 3-(2-Aminoethoxyimino)-7-(spirocyclopropane)androstan-17-one hydrochloride]: 0.13 µM.

Still in this assay, the particulars now being: read-out: Na+, K+-ATPase Inhibition IC50.
In the case of `C=C1C[C@@H]2[C@H](CC[C@]3(C)C(=O)CC[C@@H]23)[C@@]2(C)CCC(=NOCCN)CC12` (stereo partly shown) [I-ah, (E,Z) 3-(2-Aminoethoxyimino)-6-methyleneandrostan-17-one hydrochloride], the concentration for half-maximal inhibition (IC50) turned out to be 0.042 µM.

For `CC(C)(CN)ON=C1CC[C@@]2(C)C(C1)/C(=N/O)C[C@@H]1[C@@H]2CC[C@]2(C)C(=O)CC[C@@H]12` (stereo partly shown) [I-eo, (E,Z) 3-(3-Amino-2-methyl-2-propoxyimino)-6-(E)-hydroxyiminoandrostane-17-one hydrochloride], the IC50 turned out to be 0.02 µM.

Regarding `C[C@]12CCC(=NOCCN)CC1C[C@@H](NC=O)[C@@H]1[C@@H]2CC[C@]2(C)C(=O)CC[C@@H]12` (stereo partly drawn) [I-bw, (E,Z)-3-(2-Aminoethoxyimino)-7α-formamidoandrostane-3,17-dione hydrochloride], the IC50 was 6 µM.

Turning to `C[C@]12CC/C(=N/OCCN)CC1[C@@H](C(N)=O)C[C@@H]1[C@@H]2CC[C@]2(C)C(=O)CC[C@@H]12` (stereo partly drawn) [I-as, (Z) 3-(2-Aminoethoxyimino)-6α-carbamoylandrostan-17-one hydrochloride], the IC50 amounted to 0.63 µM. On the same count and under the same terms, the same measure for `C[C@]12CCC(=NOCCN)CC1C[C@@H](O)[C@@H]1[C@@H]2CC[C@]2(C)C(=O)CC[C@@H]12` (stereo partly drawn) [I-bv, (E,Z) 3-(2-Aminoethoxyimino)-7α-hydroxyandrostane-17-one fumarate]: 0.52 µM; for `C[C@]12CCC(=NOCCN)CC1C1(CO1)C[C@@H]1[C@@H]2CC[C@]2(C)C(=O)CC[C@@H]12` (stereo partly drawn) [I-bc, (E,Z)-3-(2-Aminoethoxyimino)androstane-6(R)-(spiro-2′-oxirane)-17-one hydrochloride]: 0.91 µM.

`C[C@]12CCC(=NOCCN)CC1[C@@H](C=NO)C[C@@H]1[C@@H]2CC[C@]2(C)C(=O)CC[C@@H]12` (stereo partly drawn) [I-an, 3-(E,Z)-(2-Aminoethoxyimino)-17-oxoandrostane-6α-carbaldehyde (E,Z)-oxime fumarate]: the 50% inhibitory concentration (IC50) turned out to be 0.39 µM. Consider `CC(=O)NC[C@H]1C[C@@H]2[C@H](CC[C@]3(C)C(=O)CC[C@@H]23)[C@@]2(C)CCC(=NOCCN)CC12` (stereo partly drawn) [I-bm, (E,Z) 3-(2-Aminoethoxyimino)-6α-acetamidomethylandrostan-17-one hydrochloride], for which the half-inhibitory concentration (IC50) is 3.6 µM. The same measure, in the same setting: the figure for `CC12CCC3C(CC(C(N)=O)C4CC(=NOCCN)CCC43C)C1CCC2=O` (mixture of isomers) [I-at, (E,Z) 3-(2-Aminoethoxyimino)-6α-carbamoylandrostan-17-one fumarate] is 0.63 µM.
